Molecular target: T1, HIF-PH2 (Homo sapiens, UniProt Q9GZT9)
T1 construct: made in house; host or cells: insect Hi5 cells
Test: HIF-PH assay (14CO2 capture, peptide-dependent turnover)
Type: biochemical
Settings: Concentration 7.41 μM
Excerpt: Ketoglutaric acid α-[1-^14C]-sodium salt, alpha-ketoglutaric acid sodium salt, and HPLC purified peptide may be obtained from commercial sources, e.g., Perkin-Elmer (Wellesley Mass.), Sigma-Aldrich, and SynPep Corp. (Dublin Calif.), respectively. Peptides for use in the assay may be fragments of HIFα as described above or as disclosed in International Publication WO 2005/118836, incorporated by reference herein. For example, a HIF peptide for use in the HIF-PH assay is [methoxycoumarin]-DLDLEALAPYIPADDDFQL-amide. HIF-PH, e.g., HIF-PH2 (EGLN1), can be expressed in, e.g., insect Hi5 cells, and partially purified, e.g., through a SP ion exchange chromatography column. Enzyme activity is determined by capturing ^14CO2 using an assay described by Kivirikko and Myllyla (1982, Methods Enzymol. 82:245-304). Assay reactions contain 50 mM HEPES (pH 7.4), 100 μM α-ketoglutaric acid sodium salt, 0.30 μCi/mL ketoglutaric acid α-[1-^14C]-sodium salt, 40 μM FeSO4, 1 mM ascorbate, 1541.8 units/mL Catalase, with or without 50 μM peptide substrate and various concentrations of compound of the invention. Reactions are initiated by addition of HIF-PH enzyme.
The peptide-dependent percent turnover is calculated by subtracting percent turnover in the absence of peptide from percent turnover in the presence of substrate peptide. Percent inhibition and IC50 are calculated using peptide-dependent percent turnover at given inhibitor concentrations. Calculation of IC50 values for each inhibitor is conducted using GraFit software (Erithacus Software Ltd., Surrey UK).
Representative compounds of the invention were analyzed using the HIF-PH assay described above. Table I presents enzyme inhibition data for exemplary compounds against HIF-PH2, a representative HIF prolyl hydroxylase. By inhibiting HIF prolyl hydroxylase, compounds of the invention stabilize HIFα, which then combines with HIFβ to form an active transcription factor that increases expression of various genes involved in numerous beneficial cellular processes.

T1 sequence (Q9GZT9 whole entry, species assumed): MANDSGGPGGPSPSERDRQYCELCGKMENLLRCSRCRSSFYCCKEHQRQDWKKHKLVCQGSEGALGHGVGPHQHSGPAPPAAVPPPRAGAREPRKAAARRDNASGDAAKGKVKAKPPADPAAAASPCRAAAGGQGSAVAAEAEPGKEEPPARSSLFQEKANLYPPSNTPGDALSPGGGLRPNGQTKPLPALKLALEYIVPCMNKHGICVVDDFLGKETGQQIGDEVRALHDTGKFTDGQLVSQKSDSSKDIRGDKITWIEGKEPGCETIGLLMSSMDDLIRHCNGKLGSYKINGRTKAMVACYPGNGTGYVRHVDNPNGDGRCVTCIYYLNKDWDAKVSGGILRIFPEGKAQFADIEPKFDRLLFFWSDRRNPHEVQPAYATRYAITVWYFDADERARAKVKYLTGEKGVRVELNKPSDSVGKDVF

Row | inhibition at 7.41 µM | Compound
1 | 94% | COc1ccc(-c2ccc3oc(=O)c(C(=O)NCC(=O)O)c(O)c3c2)cc1 [Example 3, {[4-Hydroxy-6-(4-methoxy-phenyl)-2-oxo-2H-chromene-3-carbonyl]-amino}-acetic acid]
2 | 100% | O=C(O)CNC(=O)c1c(O)c2cc(-c3ccc(Oc4ccccc4)cc3)ccc2oc1=O [Example 4, {[4-Hydroxy-2-oxo-6-(4-phenoxy-phenyl)-2H-chromene-3-carbonyl]-amino}-acetic acid]
3 | 96% | O=C(O)CNC(=O)c1c(O)c2cc(-c3ccc(C(F)(F)F)cc3)ccc2oc1=O [Example 5, {[4-Hydroxy-2-oxo-6-(4-trifluoromethyl-phenyl)-2H-chromene-3-carbonyl]-amino}-acetic acid]

Same assay, conditions: Concentration 12.50 μM

Row | inhibition at 12.5 µM | Compound
4 | 100% | O=C(O)CNC(=O)c1c(O)c2cc3cc(Br)ccc3c(Br)c2oc1=O [Example 34, [(7,10-Dibromo-4-hydroxy-2-oxo-2H-benzo[g]chromene-3-carbonyl)-amino]-acetic acid]
5 | 97% | Cc1ccc2c(O)c(C(=O)NCC(=O)O)c(=O)oc2c1 [Example 35, [(4-Hydroxy-7-methyl-2-oxo-2H-chromene-3-carbonyl)-amino]-acetic acid]
6 | 100% | O=C(O)CNC(=O)c1c(O)c2cc(-c3ccco3)ccc2oc1=O [Example 28, [(6-Furan-2-yl-4-hydroxy-2-oxo-2H-chromene-3-carbonyl)-amino]-acetic acid]
7 | 98% | Cc1cc2oc(=O)c(C(=O)NCC(=O)O)c(O)c2cc1C [Example 15, [(4-Hydroxy-6,7-dimethyl-2-oxo-2H-chromene-3-carbonyl)-amino]-acetic acid]
8 | 99% | O=C(O)CNC(=O)c1c(O)c2cc(-c3cccs3)ccc2oc1=O [Example 27, [(4-Hydroxy-2-oxo-6-thiophen-2-yl-2H-chromene-3-carbonyl)-amino]-acetic acid]
9 | 98% | O=C(O)CNC(=O)c1c(O)c2ccc(F)cc2oc1=O [Example 17, [(7-Fluoro-4-hydroxy-2-oxo-2H-chromene-3-carbonyl)-amino]-acetic acid]
10 | 96% | O=C(O)CNC(=O)c1c(O)c2cc(F)ccc2oc1=O [Example 16, [(6-Fluoro-4-hydroxy-2-oxo-2H-chromene-3-carbonyl)-amino]-acetic acid]
11 | 100% | O=C(O)CNC(=O)c1c(O)c2ccc3ccccc3c2oc1=O [Example 31, [(4-Hydroxy-2-oxo-2H-benzo[h]chromene-3-carbonyl)-amino]-acetic acid]
12 | 95% | O=C(O)CNC(=O)c1c(O)c2cc(F)cc(F)c2oc1=O [Example 18, [(6,8-Difluoro-4-hydroxy-2-oxo-2H-chromene-3-carbonyl)-amino]-acetic acid]
13 | 98% | O=C(O)CNC(=O)c1c(O)c2cc3ccccc3cc2oc1=O [Example 32, [(4-Hydroxy-2-oxo-2H-benzo[g]chromene-3-carbonyl)-amino]-acetic acid]

Same assay, conditions: Concentration 22.22 μM

Row | inhibition at 22.22 µM | % Inhibition HIF-PH2 | Compound
14 | 97% | – | O=C(O)CNC(=O)c1c(O)c2cc(Br)ccc2oc1=O [Example 2, [(6-Bromo-4-hydroxy-2-oxo-2H-chromene-3-carbonyl)-amino]-acetic acid]
15 | 100% | – | O=C(O)CNC(=O)c1c(O)c2cc(-c3ccc(OCc4ccccc4)cc3)ccc2oc1=O [Example 8, {[6-(4-Benzyloxy-phenyl)-4-hydroxy-2-oxo-2H-chromene-3-carbonyl]-amino}-acetic acid]
16 | 96% | – | O=C(O)CNC(=O)c1c(O)c2cc(Cl)cc(Cl)c2oc1=O [Example 13, [(6,8-Dichloro-4-hydroxy-2-oxo-2H-chromene-3-carbonyl)-amino]-acetic acid]
17 | 100% | – | O=C(O)CNC(=O)c1c(O)c2ccc(-c3ccc(Oc4ccccc4)cc3)cc2oc1=O [Example 11, {[4-Hydroxy-2-oxo-7-(4-phenoxy-phenyl)-2H-chromene-3-carbonyl]-amino}-acetic acid]
18 | 96% | – | O=C(O)CNC(=O)c1c(O)c2ccccc2oc1=O [Example 1, [(4-Hydroxy-2-oxo-2H-chromene-3-carbonyl)-amino]-acetic acid]
19 | 100% | – | O=C(O)CNC(=O)c1c(O)c2ccc(Oc3ccccc3)cc2oc1=O [Example 9, [(4-Hydroxy-2-oxo-7-phenoxy-2H-chromene-3-carbonyl)-amino]-acetic acid]
20 | – | 100% | C[C@H](NC(=O)c1c(O)c2ccc(-c3ccc(Oc4ccccc4)cc3)cc2oc1=O)C(=O)O [Example 12, 2-S-{[4-Hydroxy-2-oxo-7-(4-phenoxy-phenyl)-2H-chromene-3-carbonyl]-amino}-propionic acid]
21 | 100% | – | Cc1ccc2c(O)c(C(=O)NCC(=O)O)c(=O)oc2c1C [Example 10, [(4-Hydroxy-7,8-dimethyl-2-oxo-2H-chromene-3-carbonyl)-amino]-acetic acid]

Same assay, conditions: Concentration 50.00 μM

Row | inhibition at 50 µM | Compound
22 | 99% | O=C(O)CNC(=O)c1c(O)c2c(OCc3ccc(F)cc3)cccc2oc1=O [Example 47, {[5-(4-Fluoro-benzyloxy)-4-hydroxy-2-oxo-2H-chromene-3-carbonyl]-amino}-acetic acid]
23 | 99% | O=C(O)CNC(=O)c1c(O)c2cc(Cl)cc(-c3cccnc3)c2oc1=O [Example 23, [(6-Chloro-4-hydroxy-2-oxo-8-pyridin-3-yl-2H-chromene-3-carbonyl)-amino]-acetic acid]
24 | 99% | Cc1cccc2c(O)c(C(=O)NCC(=O)O)c(=O)oc12 [Example 20, [(4-Hydroxy-8-methyl-2-oxo-2H-chromene-3-carbonyl)-amino]-acetic acid]
25 | 99% | O=C(O)CNC(=O)c1c(O)c2cc(-c3ccccn3)ccc2oc1=O [Example 30, [(4-Hydroxy-2-oxo-6-pyridin-2-yl-2H-chromene-3-carbonyl)-amino]-acetic acid]
26 | 99% | Cc1ccc(COc2cccc3oc(=O)c(C(=O)NCC(=O)O)c(O)c23)cc1 [Example 48, {[4-Hydroxy-5-(4-methyl-benzyloxy)-2-oxo-2H-chromene-3-carbonyl]-amino}-acetic acid]
27 | 99% | Cn1nc(C(F)(F)F)cc1-c1cc(Cl)cc2c(O)c(C(=O)NCC(=O)O)c(=O)oc12 [Example 21, {[6-Chloro-4-hydroxy-8-(2-methyl-5-trifluoromethyl-2H-pyrazol-3-yl)-2-oxo-2H-chromene-3-carbonyl]-amino}-acetic acid]
28 | 97% | O=C(O)CNC(=O)c1c(O)c2cc(-c3cccnc3)ccc2oc1=O [Example 29, [(4-Hydroxy-2-oxo-6-pyridin-3-yl-2H-chromene-3-carbonyl)-amino]-acetic acid]
29 | 99% | Cc1cc(Cl)cc2c(O)c(C(=O)NCC(=O)O)c(=O)oc12 [Example 19, [(6-Chloro-4-hydroxy-8-methyl-2-oxo-2H-chromene-3-carbonyl)-amino]-acetic acid]
30 | 99% | O=C(O)CNC(=O)c1c(O)c2c(OCc3ccccc3)cccc2oc1=O [Example 46, [(5-Benzyloxy-4-hydroxy-2-oxo-2H-chromene-3-carbonyl)-amino]-acetic acid]

Same assay, conditions: Concentration 200.00 μM

Row | inhibition at 200 µM | Compound
31 | 100% | O=C(O)CNC(=O)c1c(O)c2cccc(Cl)c2oc1=O [Example 7, [(8-Chloro-4-hydroxy-2-oxo-2H-chromene-3-carbonyl)-amino]-acetic acid]
32 | 100% | Cc1ccc2oc(=O)c(C(=O)NCC(=O)O)c(O)c2c1 [Example 6, [(4-Hydroxy-6-methyl-2-oxo-2H-chromene-3-carbonyl)-amino]-acetic acid]
33 | 43% | CCOC(=O)CNC(=O)c1c(O)c2cc(Cl)cc(Cl)c2oc1=O [Example 14, [(6,8-Dichloro-4-hydroxy-2-oxo-2H-chromene-3-carbonyl)-amino]-acetic acid ethyl ester]
34 | 100% | O=C(O)CNC(=O)c1c(O)c2c(ccc3ccccc32)oc1=O [Example 33, [(1-Hydroxy-3-oxo-3H-benzo[f]chromene-2-carbonyl)-amino]-acetic acid]
